Measured values taken from US20120251628A1, “COMPOSITIONS AND METHODS FOR TREATMENT OF CANCER” (priority 2011, published 2012).

Assays:
[1] = Histologic analysis of normal organ tissues for ischemic damage; assay type: in vivo, mice; details: 10 mg/kg intraperitoneal; 8, 24 and 48 hours after injection
Method: (§1) Seven-week-old, female, specific-pathogen-free (BALB/c) white mice (weight: approximately 20 g) purchased from ORIENTBIO Inc. (Seoul Korea) were subcutaneously injected with 2×10^6 cells of the CT26 colon carcinoma cell line per mouse. When the tumor size reached 3 mm in diameter, the control group was injected with a phosphate buffered saline (PBS) solution with 5% dextrose while the experimental group was intraperitoneally injected with 100 μL of KML001 at a concentration of 10 mg/kg with 5% dextrose. At 8, 24 and 48 hours after injection, liver, spleen and tumor tissue samples were taken and placed into a 37% solution of formaldehyde for 24 hours. The tissues were inserted into paraffin and sectioned at 4 μm on a microtome (made by SLEE MAINZ GmbH in Germany) and the sections were placed on slides.

HUVECs = experiment: Apoptosis of HUVECs (Annexin-V FACS analysis); assay type: cell-based, Human
Method: To determine the effect, if any, of sodium meta arsenite on vascularization, the effect on endothelial cells (which are essential for vascularization) was first analyzed. Human umbilical cord vein endothelial cells (HUVECs offered by ATCC) were cultivated in 96-well microculture plates containing F-12K (Sigma) medium supplemented with 10% FBS and endothelial cell growth supplement (ECGS, E2759, Sigma). For the cytotoxicity test of the cells after 24 hour cultivation, the cells were treated with KML001 at the concentration of 0.1 nM, 1 nM, 10 nM, 1 uM, 10 uM and 100 uM. At 24 hours and 48 hours after treatment, 20 μl/well of CellTiter 96® Aqueous One Solution (by Promega) Reagent was added on each well and reacted for one hour at 37° C. The reacted 96-well plates were measured at 490 nm using a spectrophotometer (UVStar, Greiner Bio-One). To analyze apoptosis of HUVECs, the cells were cultivated on F25 flasks using the same method as discussed above and then the cells were treated with sodium meta arsenite at a concentration of 10 uM, 20 uM and 50 uM. Cells were collected after 24 and 48 hours. The collected cells were stained for 30 minutes with Annexin-V for FACS analysis. After two washes, the cells were analyzed by using flow cytometry (FACSCALIBUR, BECTON DICLINSON).

[2] = test system: CT26 colon carcinoma cell line; experiment: Histologic analysis (hematoxylin and eosin) of tumor tissues; assay type: in vivo, mice; details: 10 mg/kg intraperitoneal; 8, 24 and 48 hours after injection; with increasing exposure time; from the central part of the tumors
Method: as §1

microtubules = experiment: Immunohistochemistry of microtubules in HUVECs (confocal microscopy); assay type: cell-based, Human; details: 1 uM, 5 uM and 10 uM, 24 and 48 hours, concentration dependent
Method: HUVECs were cultured in a confocal dish (made by SPL, Korea) with F-12K (Sigma) medium containing 10% FBS and endothelial cell growth supplement (ECGS, E2759, Sigma). After cultivation for 24 hours, the cells were treated with sodium meta arsenite at a concentration of 1 uM, 5 uM and 10 uM. At 24 hours and 48 hours after treatment, the cells were fixed with 3.7% paraformaldehyde at room temperature for 10 minutes. After washing with phosphate buffered saline (PBS) solution three times, the cells were treated with 0.15% Triton X-100 for 15 minutes and then washed three times with PBS solution. After blocking with 2% bovine serum albumin (BSA, Sigma) at room temperature for 60 minutes, the cells were washed three times with PBS solution. Monoclonal antibody against α-tubulin (SantaCruze, sc-32293) was reacted with the cells at room temperature for one hour and then the cells were washed three times with the PBS solution. The cells were then reacted with rat anti-mouse IgG1 secondary antibody (Pharmigen, #A85-1) conjugated to FITC. After being washed three times with PBS solution, they were analyzed using a confocal laser scanning microscope (OLYMPUS FV500,1×81).

[3] = test system: CT26 (mouse colon cancer); experiment: DCE-MRI of tumor vascularity (Kep) in CT26 tumor mice; assay type: in vivo
Method: To determine whether the occurrence of central necrosis of tumors 24 hours after treatment was caused by the reduction of vascularity, DCE-MRI was used before the medication was administered and 24 hours after administration.
Inoculate CT26 (mouse colon cancer) 2×10^6 cell subcutaneously into mice on the upper parts of their thighs.
After checking the tumor size between 6 to 10 mm, acquire images through MRI.
Image Acquisition: Use a magnetic resonance imaging device (i.e., 3 Tesla Intera human clinical scanner; Philips medical systems) and a mouse coil with an inner diameter of 4 cm to get images. Acquire images before the drug is administered and those 24 hours after that for two days.
MR Pulse Sequence as follows: Dynamic Contrast enhanced MRI scan: FOV (mm)=50×35; RFOV (%)=71; Matrix scan=112; reconstruction=224; TR/TE (ms)=12/4.0; slice thickness=1 mm; slice number=11; dynamic scans=60.
i. Conduct an experiment to the subjects under anesthesia by using an inhalation anesthetic mixing 1.5% isoflurane in 100% oxygen at a flow rate of 1 L/min.
ii. Cannulate an intravenous injection line through the tail vein to inject a contrast agent.
iii. Use Gd-DTPA (Magnevist, Schering, Germany, 281 mg/kg) as a contrast agent and get pre-contrast images before injecting the contrast agent and post-contrast images after injecting it.
iv. After getting the images, inject KML001 (10 mg/kg) and Arsenic trioxide (7.5 mg/kg) intraperitoneally.
v. Get images through a dynamic scan again 24 hours after injection.
Accordingly, the groups of animals with which the DCE-MRI data was obtained are as follows: Group of animals treated with ATO: n=4, Group of animals treated with Saline: n=4 and Group of animals treated with KML001: n=6.
As the low data in MRI was mapped from each result of the DCE-MRI to the positive control group of animals treated with ATO, the negative control group of animals treated with saline and the experimental group of animals treated with KML001, Kep values important for tumor vascularity were calculated. Kep (rate constant) is the back diffusion rate constant from interstitial space to vascular space, reflecting leakage of tumor vessels, i.e., a measurement of vascularity.

tumors = experiment: Cell and animal experiments with KML001 injected after tumors were generated; assay type: in vivo
[4] = injected after tumors were generated

With `O=[As][O-].[Na+]` [sodium meta arsenite] the “ischemic damage in liver, spleen or kidney tissues” value [1] was “No ischemic damage was observed”, the “apoptosis, dependence on concentration” value (HUVECs; 10 uM, 20 uM and 50 uM) was “concentration dependent, increasing with increased concentration” and the apoptosis over time (HUVECs; 24 and 48 hours exposure) was “increased over time”. The “scope of necrotic cell death in the tumor tissues” value [2] was “observed to increase”, the “total amount of microtubules” value (microtubules) was “reduction in the total amount of microtubules” and the “Kep values (back diffusion rate constant, tumor vascularity)” value ([3]; 24 hours after intraperitoneal injection vs pre-treatment, KML001 10 mg/kg, ATO 7.5 mg/kg) was “significantly reduced”. For the same compound, the “contrast enhancement of the tumors in the MRI” value ([3]; 24 hours after treatment) was “decreased”, the apoptosis (tumors; cell experiments and animal experiments) was “occurred dose-dependently” and the “necrotic phenomena in tumor tissues” value (tumors; [4]) was “occurred”. For the same compound, the “reduction in tumor volume” value (tumors; [4]) was “no effect”.
